Reference: patent US5726162A (priority 1996, dated 1998)
Where two headings read alike, the source gives them in different places.

How the values were obtained:
[1] = system: Magnaporthe grisea (Pyricularia oryzae); assay: whole plant or invertebrate; assay type: in vivo, Magnaporthe grisea (Pyricularia oryzae) on M201 rice plants; conditions: Pyricularia oryzae, 144 h, read-out: % Control RB
fungal inoculum = assay: organism not typed; assay type: cell-based; conditions: read-out: % growth inhibition
[2] = system: Thanatephorus cucumeris (Rhizoctonia solani); assay: In vivo test b) Rice Sheath Blight (RSB), 24 hour preapplication protectant, % control; conditions: for pest or weed control at 200 ppm: read-out: % Control RSB
Procedure: Compounds were tested at 200 ppm as a twenty-four hour preapplication protectant test prior to inoculation.
b) Rice Sheath Blight (RSB)
Thanatephorus cucumeris (Rhizoctonia solani) mycelia were grown for six days in potato dextrose broth in shake culture. Drained mycelial mats were blended with an approximately equal weight of rice flour and five parts water. This slurry was dispensed onto the soil surface of pots containing rice seedlings previously treated with experimental compounds. The plants were placed in a mist chamber at 25°-28° C. for 48 hours. Following two more days at 25° C. and 70-90% relative humidity the plants were evaluated for percent disease control compared to check plants.

fungal mycelium = assay: organism not typed; assay type: cell-based; conditions: read-out: % growth inhibition
Candida albicans = assay: Activity against Candida albicans in microtiter plates, % control of growth; assay type: cell-based
Procedure: The activity against Candida albicans was determined using the following test protocol.
Conidia and mycelium from the Candida albicans culture maintained on potato dextrose agar plates were lightly scraped off into yeast extract-dextrose broth (YDB) so that mostly conidia was used as inoculum. The conidial suspsension was strained through a double layer of cheesecloth to remove mycelial clumps. The inoculum mixture was placed in microtiter plates using a 12-tipped pipet. 175 microliters were placed in each well of the microliter plates and the plates were placed in the refrigerator overnight. There were two replications.
The compounds to be tested were dissolved in 1:1 acetone:methanol and 100 ppm of the compound solution were placed in a well of the prepared microtiter plates.
The microtiter plates were incubated for 7 days at room temperature after addition of the compounds. Percent control was visually estimated using a microtiter plate reading mirror. Readings were made at 1, 2, 3, and/or 7 days after treatment.

[3] = 24 h, 1 day after treatment, read-out: % control of growth +1
[4] = 48 h, 2 days after treatment, read-out: % control of growth +2
[5] = 72 h, 3 days after treatment, read-out: % control of growth +3

SMILES	pest or weed control at 200 ppm [1] [%]	pest or weed control at 200 ppm ([2]; 200 ppm, protectant) [%]	also measured
CCCCN1N=C(c2ccc(Cl)cc2)CCC1=O [Compound 7]	0	0	inhibition at 100 ppm (fungal inoculum): 94.4%
CCC#CCN1N=C(c2ccc(-c3ccccc3)cc2)CCC1=O [Compound 79]	100	75	inhibition at 50 ppm (fungal mycelium): 17%
CCC#CCN1N=C(c2ccc(C)cc2)CCC1=O [Compound 80]	99	–	pest or weed control at 200 ppm [2]: 0%; inhibition at 2.5 ppm (fungal mycelium): 100%
CCC#CCN1N=C(c2ccc(Cl)cc2)CC=C1Cl [Compound 157, 6-(4-chlorophenyl)-3-chloro-2-(2'-pentyn-1-yl)-2,5-dihydropyridazine]	10	0	inhibition at 10 ppm (fungal mycelium): 100%
CCC#CCN1N=C(c2ccc(F)c(Cl)c2)CCC1=O [Compound 104]	0	0	inhibition at 5 ppm (fungal mycelium): 100%
CCC#CCn1nc(-c2ccc(Cl)cc2)c2ccccc2c1=O [Compound 154]	50	0	inhibition at 10 ppm (fungal mycelium): 16%
CC#CCN1N=C(c2ccccc2)CCC1=O [Compound 9]	0	0	inhibition at 100 ppm (fungal inoculum): 94.4%
CC#CCCN1N=C(c2ccc(Cl)cc2)CCC1=O [Compound 21]	0	0	inhibition at 100 ppm (fungal inoculum): 45.8%
C=CC#CCN1N=C2c3ccc(Cl)cc3CC2CC1=O (centres unmarked) [Compound 156, 7-chloro-2,4,4a,5-tetrahydro-2-(2-pentyn-4-ene-1-yl)-indeno [1,2-c]-pyridazin-3-one]	100	95	inhibition of growth at 100 ppm (Candida albicans; [3]): 100%; inhibition of growth at 100 ppm (Candida albicans; [4]): 100%; inhibition of growth at 100 ppm (Candida albicans; [5]): 100%; inhibition at 1 ppm (fungal mycelium): 100%
CC#CCN1N=C(c2ccc(F)cc2)CCC1=O [Compound 13]	50	50	inhibition at 10 ppm (fungal inoculum): 87%
CCC#CCn1cc(-c2ccc(Cl)cc2)cnc1=O [Compound 150]	99	95	inhibition at 50 ppm (fungal inoculum): 48.2%
CC#CCn1nc(-c2ccc(Cl)cc2)ccc1=O [Compound 108]	95	50	inhibition at 5 ppm (fungal inoculum): 100%
CC#CCN1N=C(c2ccc(Cl)cc2Cl)CCC1=O [Compound 19]	50	0	inhibition at 100 ppm (fungal inoculum): 96.8%
O=C1CCC(c2ccc(Cl)cc2)=NN1Cc1ccccc1 [Compound 10]	–	–	inhibition at 100 ppm (fungal inoculum): 100%; pest or weed control at 200 ppm [2]: 80%
CCC#CCN1N=C(c2cc(F)c(Cl)c(F)c2)CCC1=O [Compound 90]	0	95	inhibition at 1 ppm (fungal mycelium): 100%
CCC(O)CN1N=C(c2ccc(Cl)cc2)CCC1=O (centres unmarked) [Compound 4]	0	0	inhibition at 100 ppm (fungal inoculum): 26.7%
CC#CCN1N=C(c2ccc(OC)cc2)CCC1=O [Compound 11, 6-(4-methoxyphenyl)-2-(2'-butynyl)-4,5-dihydropyridazinone]	0	0	inhibition at 10 ppm (fungal inoculum): 87.7%
O=C1CCC(c2ccc(Cl)cc2)=NN1CC#Cc1ccccc1 [Compound 17]	0	80	inhibition at 25 ppm (fungal inoculum): 91.9%
CC=CCN1N=C(c2ccc(Cl)cc2)CCC1=O [Compound 8]	0	0	inhibition at 100 ppm (fungal inoculum): 96.2%
CCC#CCN1N=C(c2ccc(Cl)cc2)OCC1=O [Compound 161, 2-(4-chlorophenyl)-4-(2-pentyn-1-yl)-4H,6H-1,3,4-oxadiazin-5-one]	99	0	inhibition of growth at 100 ppm (Candida albicans; [3]): 100%; inhibition of growth at 100 ppm (Candida albicans; [4]): 100%; inhibition of growth at 100 ppm (Candida albicans; [5]): 100%; inhibition at 1 ppm (fungal mycelium): 75.9%
CC(C)(C)N1N=C(c2ccc(Cl)cc2)CCC1=O [Compound 15, 6-(4-chlorophenyl)-4,5-dihydro-2-t-butylpyridazinone]	0	50	inhibition at 50 ppm (fungal inoculum): 37.1%
CC#CCN1N=C(c2ccc(C)cc2)CCC1=O [Compound 18]	0	0	inhibition at 5 ppm (fungal inoculum): 88.4%

SMILES	pest or weed control at 200 ppm [1] [%]	pest or weed control at 200 ppm ([2]; 200 ppm, protectant) [%]	also measured
C/C=C/C#CCN1N=C(c2ccc(Cl)cc2)CCC1=O [Compound 103]	95	0	inhibition at 1 ppm (fungal mycelium): 100%
CCC#CCn1cc(-c2ccc(Cl)cc2)ccc1=O [Compound 145, 5-(4-chlorophenyl)-1-(2-pentyn-1-yl)-2-pyridinone]	95	–	inhibition at 1 ppm (fungal inoculum): 96%; pest or weed control at 100 ppm ([2]; 100 ppm, protectant): 0%
CC#CCN1N=C(c2ccc(Cl)cc2)CCC1=O [Compound 1]	90	0	inhibition at 5 ppm (fungal inoculum): 92.7%
C/C=C\C#CCN1N=C(c2ccc(Cl)cc2)CCC1=O [Compound 102]	99	0	inhibition at 1 ppm (fungal mycelium): 100%
O=C1CCC(c2ccc(Cl)c(Cl)c2)=NN1CCCO [Compound 5]	0	50	inhibition at 100 ppm (fungal inoculum): 75%
COc1ccc(C2=NN(CCCO)C(=O)CC2)cc1 [Compound 2]	0	0	inhibition at 100 ppm (fungal inoculum): 0%
O=C1CCC(c2ccc(Cl)cc2)=NN1C(=O)c1ccccc1 [Compound 16]	0	50	inhibition at 50 ppm (fungal inoculum): 12.7%
CCC#CCN1N=C(c2ccc(Cl)cc2)CC=C1n1cncn1 [Compound 159]	0	0	inhibition at 1 ppm (fungal mycelium): 100%
O=C1CCC(c2ccc(Cl)cc2)=NN1Cc1cccc(Cl)c1 [Compound 105]	75	0	inhibition at 10 ppm (fungal mycelium): 33.3%
C=CC#CCN1N=C(c2ccc(Cl)c(F)c2)CCC1=O [Compound 100]	100	0	inhibition of growth at 100 ppm (Candida albicans; [3]): 100%; inhibition of growth at 100 ppm (Candida albicans; [4]): 100%; inhibition of growth at 100 ppm (Candida albicans; [5]): 100%; inhibition at 0.16 ppm (fungal mycelium): 100%
C#CC=CCN1N=C(c2ccc(Cl)cc2)CCC1=O [Compound 84]	95	0	inhibition at 50 ppm (fungal inoculum): 75.8%
CCC#CCN1N=C(c2ccc(Cl)cc2)CC=C1Br [Compound 160]	0	95	inhibition at 1 ppm (fungal mycelium): 100%
CCC(O)CN1N=C(c2ccc(Cl)c(Cl)c2)CCC1=O (centres unmarked) [Compound 3]	0	0	inhibition at 100 ppm (fungal inoculum): 53.6%
CC#CCN1N=C(C=Cc2ccc(C(C)(C)C)cc2)CCC1=O [Compound 107]	0	0	inhibition at 200 ppm (fungal mycelium): 83.7%
CCC#CCn1nc(-c2ccc(F)c(Cl)c2)ccc1=O [Compound 129]	0	0	inhibition at 1 ppm (fungal mycelium): 100%
C#CCN1N=C(c2ccc(Cl)cc2)CCC1=O [Compound 6, 6-(4-chlorophenyl)-2-propargyl-4,5-dihydropyridazinone]	0	0	inhibition at 100 ppm (fungal inoculum): 91.5%
CC=CC#CCN1N=C(c2ccc(Cl)cc2)CCC1=O [Compound 101]	75	0	inhibition at 1 ppm (fungal mycelium): 100%
O=C1CCC(c2ccc(Cl)cc2)=NN1CC#CC(F)F [Compound 89]	95	0	inhibition at 10 ppm (fungal mycelium): 100%
C=CC#CCn1nc(-c2ccc(Cl)c(F)c2)ccc1=O [Compound 128]	95	0	inhibition of growth at 100 ppm (Candida albicans; [3]): 100%; inhibition of growth at 100 ppm (Candida albicans; [4]): 100%; inhibition of growth at 100 ppm (Candida albicans; [5]): 100%; inhibition at 0.156 ppm (fungal mycelium): 100%
CC#CCN1N=C(c2cccnc2)CCC1=O [Compound 132]	0	0	inhibition at 200 ppm (fungal mycelium): 91.8%
CC#CCN1N=C(c2ccc(OC)c(F)c2)CCC1=O [Compound 20]	0	0	inhibition at 10 ppm (fungal inoculum): 100%
CCC#CCN1N=C2c3ccc(Cl)cc3C(C)C2CC1=O (centres unmarked) [Compound 155]	100	90	inhibition at 10 ppm (fungal mycelium): 92%
